Data as given in ChEMBL document CHEMBL1201862, “PubChem BioAssay data set” (2004).
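How tested: cells in 96-well plates exposed to compound for 48 hours at five concentrations. GI50 = concentration required for 50% inhibition of growth.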 Activity calls are given as the source filed them. Cut-off read from the data, not from the text of the source: active = GI50 up to about 1.1 µM and inactive = higher.

How the values were obtained:
Assay in all cases: NCI anticancer screen, dose series, 48 h
HCT-15 = tested on: HCT-15
CAKI-1 = tested on: CAKI-1
MOLT-4 = tested on: MOLT-4
SK-MEL-2 = tested on: SK-MEL-2
LOX IMVI = tested on: LOX IMVI
SR = tested on: SR
RXF 393 = tested on: RXF 393
HOP-62 = tested on: HOP-62
IGROV-1 = tested on: IGROV-1
HCT-116 = tested on: HCT-116
OVCAR-8 = tested on: OVCAR-8
Hs-578T = tested on: Hs-578T
HOP-92 = tested on: HOP-92
A549 = tested on: A549
HL-60 = tested on: HL-60
Malme-3M = tested on: Malme-3M
HT-29 = tested on: HT-29
UACC-62 = tested on: UACC-62
COLO 205 = tested on: COLO 205
KM12 = tested on: KM12

Measured: GI50

COC(=O)c1c2c(cc3c1CC1(Cc4cc5c(c(C=O)c4C1)CCC5)C3)CCC2 (stereo unspecified)
inactive: CAKI-1 > 100 µM | MOLT-4 17 µM | SK-MEL-2 23.8 µM | LOX IMVI 22.5 µM | SR 19.3 µM | RXF 393 30.7 µM | HOP-62 51.9 µM | IGROV-1 28.4 µM | HCT-116 21.2 µM | OVCAR-8 42.8 µM | Hs-578T 92.7 µM | HOP-92 19.3 µM | A549 27.9 µM | HL-60 25.8 µM | Malme-3M 22.9 µM | HT-29 21.4 µM
40.3 µM: HCT-15

Cc1nc2ccc(F)cc2c2c1CCN2c1ccccc1
inactive: UACC-62 12 µM | MOLT-4 15.1 µM | LOX IMVI 13.8 µM | SR 16.7 µM | COLO 205 11.9 µM | RXF 393 15 µM | HOP-62 32.9 µM | IGROV-1 18.6 µM | HCT-116 8.18 µM | OVCAR-8 20.9 µM | Hs-578T 17.9 µM | HOP-92 12.2 µM | A549 22.6 µM | HL-60 7.43 µM | KM12 23.9 µM | Malme-3M 20.2 µM | HT-29 8.51 µM
25.9 µM: HCT-15

COc1cc2cc(C(=O)N3CC(CCl)c4c3cc(NCCN)c3ccccc43)[nH]c2c(OC)c1OC (stereo unspecified)
active: UACC-62 < 0.01 µM | CAKI-1 < 0.01 µM | MOLT-4 < 0.01 µM | SK-MEL-2 < 0.01 µM | LOX IMVI < 0.01 µM | SR < 0.01 µM | COLO 205 0.0112 µM | RXF 393 < 0.01 µM | HOP-62 < 0.01 µM | IGROV-1 < 0.01 µM | HCT-116 < 0.01 µM | OVCAR-8 < 0.01 µM | Hs-578T < 0.01 µM | HOP-92 < 0.01 µM | A549 < 0.01 µM | KM12 < 0.01 µM | Malme-3M < 0.01 µM
0.0105 µM: HCT-15

COC(=O)c1c2c(cc3c1CC1(Cc4cc5c(c(C(C)=O)c4C1)CCCC5)C3)CCCC2 (stereo unspecified)
inactive: UACC-62 > 100 µM | SK-MEL-2 21.4 µM | LOX IMVI > 100 µM | SR 3.02 µM | COLO 205 > 100 µM | RXF 393 > 100 µM | HOP-62 > 100 µM | IGROV-1 > 100 µM | HCT-116 60 µM | OVCAR-8 > 100 µM | Hs-578T > 100 µM | HOP-92 > 100 µM | A549 > 100 µM | HL-60 12.6 µM | KM12 > 100 µM | Malme-3M > 100 µM | HT-29 48.8 µM
> 100 µM: HCT-15

CCc1[nH]c(=O)c2oc3cc4ccccc4cc3c2c1C(=O)O
inactive: SK-MEL-2 > 10 µM | LOX IMVI > 10 µM | SR > 10 µM | RXF 393 > 10 µM | HCT-116 > 10 µM | OVCAR-8 > 10 µM | Hs-578T > 10 µM | HOP-92 > 10 µM | A549 > 10 µM | HL-60 > 10 µM | KM12 > 10 µM | Malme-3M > 10 µM | HT-29 > 10 µM
active: IGROV-1 0.001 µM
> 10 µM: HCT-15

CCn1c(=O)c2c3cc(OC(C)=O)ccc3oc2c2ccc(OC(C)=O)cc21
39.1 µM: HCT-15
inactive: UACC-62 21.7 µM | CAKI-1 40 µM | MOLT-4 23.6 µM | SR 36.3 µM | COLO 205 20.7 µM | RXF 393 37.2 µM | HOP-62 37.9 µM | IGROV-1 38.9 µM | HCT-116 32.2 µM | OVCAR-8 30.8 µM | Hs-578T 11.1 µM | HOP-92 23.4 µM | A549 43.9 µM | KM12 40.1 µM | Malme-3M 39.4 µM | HT-29 37.3 µM

Clc1ccccc1C(Nc1ncccn1)Nc1ncccn1
inactive: UACC-62 > 100 µM | CAKI-1 > 100 µM | MOLT-4 > 100 µM | SK-MEL-2 > 100 µM | LOX IMVI > 100 µM | SR 8.15 µM | COLO 205 > 100 µM | RXF 393 > 100 µM | HOP-62 > 100 µM | IGROV-1 > 100 µM | HCT-116 > 100 µM | OVCAR-8 > 100 µM | Hs-578T > 100 µM | HOP-92 > 100 µM | A549 > 100 µM | HL-60 > 100 µM | KM12 > 100 µM | HT-29 > 100 µM
> 100 µM: HCT-15

O=[N+]([O-])c1cc(C2ON=C(c3ccccc3)N2C23CC4CC(CC(C4)C2)C3)ccc1Cl (stereo unspecified)
> 100 µM: HCT-15
inactive: CAKI-1 > 100 µM | MOLT-4 > 100 µM | SK-MEL-2 > 100 µM | LOX IMVI > 100 µM | SR > 100 µM | COLO 205 > 100 µM | RXF 393 > 100 µM | HOP-62 > 100 µM | IGROV-1 > 100 µM | HCT-116 73.5 µM | OVCAR-8 > 100 µM | Hs-578T > 100 µM | HOP-92 > 100 µM | A549 > 100 µM | HL-60 > 100 µM | KM12 > 100 µM | Malme-3M > 100 µM | HT-29 > 100 µM
